The record followed here is ChEMBL document CHEMBL1136559, “Discovery, SAR, synthesis, pharmacokinetic and biochemical characterization of A-192411: a novel fungicidal lipopeptide-(I)” (Bioorg Med Chem Lett, 2003).

Converted amounts (≈) assume the structure as drawn. Starred links: 1 amine or outer side, 2 acyl side, 3 side chain; linkers in the order of their positions; H or OH if unused. Positions of bridges follow the written chain, without caps; N, C: chain ends. Non-standard residues stand in square brackets, D forms with d. Residues, ends and D or L forms follow the SMILES beside them. *: point of attachment. Pro(cis-4-guanidino) = NC(N)=N[C@@H]1CN[C@H](C(=O)O)C1; hTyr(3-COCH2NH2) = NCC(=O)c1cc(CC[C@H](N)C(=O)O)ccc1O; X3 = CCCCCCCCOc1ccc(N2CCN(c3ccc(C(=O)*)cc3)CC2)cc1; X5 = CCCCCCCCN1CCN(c2ccc(-c3ccc(C(=O)*)cc3)cc2)CC1; X6 = NCC(=O)[C@H]1C[C@@H](C(=O)[*:2])N([*:1])C1; Pro(4S-NH2) = N[C@@H]1CN[C@H](C(=O)O)C1; Hyp = O=C(O)[C@@H]1C[C@@H](O)CN1; Orn = NCCC[C@H](N)C(=O)O

For orientation: MIC means the smallest concentration in the dilution series that meets the test's criterion for growth inhibition.

What all share (type): functional
In assay [1] the test system is Candida albicans. As to the kind of experiment: Antifungal activity against Candida albicans ATCC 62376. Conditions: Candida albicans, ATCC 62376; read-out: MIC.
The subject of another assay is Kluyveromyces marxianus. As to the kind of experiment: Antifungal activity against Candida kefyr ATCC 28838. Conditions: Kluyveromyces marxianus, ATCC 28838; read-out: MIC.
The test system of assay [2] is Candida albicans. As to the kind of experiment: Antifungal activity against Candida albicans CAF-2. To be noted: Candida albicans; read-out: MIC.
Assay [3] has as its system Candida albicans. As to the kind of experiment: Antifungal activity against Candida albicans ATCC 10231. To be noted: Candida albicans, ATCC 10231; read-out: MIC.
A further assay has as its system Aspergillus niger. As to the kind of experiment: Antifungal activity against Aspergillus niger ATCC 16404. Conditions: Aspergillus niger, ATCC 16404; read-out: MIC.
A further assay has as its system [Candida] zeylanoides. As to the kind of experiment: Antifungal activity against Candida zeylanoides NRRL Y-112. Conditions: Dujonia zeylanoides; read-out: MIC.
A further assay deals with Nakaseomyces glabratus. As to the kind of experiment: Antifungal activity against Torulopsis glabrata ATCC 15545. Conditions: Nakaseomyces glabratus, ATCC 15545; read-out: MIC.
The subject of assay [4] is Candida albicans. As to the kind of experiment: Antifungal activity against Candida albicans 579A. Conditions: Candida albicans; read-out: MIC.
Assay [5] deals with Candida albicans. As to the kind of experiment: Antifungal activity against Candida albicans ATCC 38247. To be noted: Candida albicans, ATCC 38247; read-out: MIC.
A further assay relates to Naganishia albida. As to the kind of experiment: Antifungal activity against Cryptococcus albidus ATCC 34140. Conditions: Naganishia albida, ATCC 34140; read-out: MIC.
The subject of assay [6] is Candida albicans. As to the kind of experiment: Antifungal activity against Candida albicans CCH 442. To be noted: Candida albicans; read-out: MIC.

For the compound `CCCCCCCCOc1ccc(N2CCN(c3ccc(C(=O)N[C@H]4CCCNC(=O)[C@@H]5C[C@H](N)CN5C(=O)[C@H]([C@@H](C)O)NC(=O)[C@H](CCc5ccc(O)c(C(=O)CN)c5)NC(=O)[C@@H]5C[C@@H](O)CN5C(=O)[C@H]([C@@H](C)O)NC4=O)cc3)CC2)cc1` (X3-[Orn]T[Hyp][hTyr(3-COCH2NH2)]T[Pro(4S-NH2)]; lactam 1-C), the MIC in the assay with Candida albicans [1] came out at 0.1 µg/mL (≈ 0.0856 µM); in the assay with Kluyveromyces marxianus it was 1.56 µg/mL (≈ 1.34 µM); in the assay on Candida albicans [2], 0.1 µg/mL (≈ 0.0856 µM); in the assay on Candida albicans [3] it was 0.1 µg/mL (≈ 0.0856 µM); with Aspergillus niger, 1.56 µg/mL (≈ 1.34 µM); in assay [Candida] zeylanoides, 0.1 µg/mL (≈ 0.0856 µM). Moreover, the MIC in the assay with Nakaseomyces glabratus was 0.2 µg/mL (≈ 0.171 µM); in the assay with Candida albicans [4], 0.1 µg/mL (≈ 0.0856 µM); with Candida albicans [5], 0.2 µg/mL (≈ 0.171 µM); in the assay on Naganishia albida, 6.25 µg/mL (≈ 5.35 µM); in the assay with Candida albicans [6], 0.1 µg/mL (≈ 0.0856 µM).

With `CCCCCCCCOc1ccc(N2CCN(c3ccc(C(=O)N[C@H]4CCCNC(=O)[C@@H]5C[C@H](N=C(N)N)CN5C(=O)[C@H]([C@@H](C)O)NC(=O)[C@H](CCc5ccc(O)c(C(=O)CN)c5)NC(=O)[C@@H]5C[C@@H](O)CN5C(=O)[C@H]([C@@H](C)O)NC4=O)cc3)CC2)cc1` (X3-[Orn]T[Hyp][hTyr(3-COCH2NH2)]T[Pro(cis-4-guanidino)]; lactam 1-C), the MIC is 0.78 µg/mL (≈ 0.644 µM) in the assay with Candida albicans [1]; 0.78 µg/mL (≈ 0.644 µM) in the assay on Kluyveromyces marxianus; 0.1 µg/mL (≈ 0.0826 µM) in the assay with Candida albicans [2]; 0.78 µg/mL (≈ 0.644 µM) in the assay with Candida albicans [3]; 6.25 µg/mL (≈ 5.16 µM) in the assay with Aspergillus niger; 3.12 µg/mL (≈ 2.58 µM) in [Candida] zeylanoides. The MIC amounted to 0.78 µg/mL (≈ 0.644 µM) with Nakaseomyces glabratus; 0.39 µg/mL (≈ 0.322 µM) in the assay on Candida albicans [4]; 0.39 µg/mL (≈ 0.322 µM) in the assay with Candida albicans [5]; 6.25 µg/mL (≈ 5.16 µM) with Naganishia albida; 0.78 µg/mL (≈ 0.644 µM) in the assay on Candida albicans [6].

As for `CCCCCCCCOc1ccc(N2CCN(c3ccc(C(=O)N[C@H]4CCCNC(=O)[C@@H]5C[C@H](C(=O)CN)CN5C(=O)[C@H]([C@@H](C)O)NC(=O)[C@H](CCc5ccc(O)c(C(=O)CN)c5)NC(=O)[C@@H]5C[C@@H](O)CN5C(=O)[C@H]([C@@H](C)O)NC4=O)cc3)CC2)cc1` (X3-[Orn]T[Hyp][hTyr(3-COCH2NH2)]T[X6]; lactam 1-C), the MIC with Candida albicans [1] is 0.39 µg/mL (≈ 0.322 µM); in the assay with Kluyveromyces marxianus it was 1.56 µg/mL (≈ 1.29 µM); in the assay on Candida albicans [2], 0.1 µg/mL (≈ 0.0826 µM); with Candida albicans [3], 0.78 µg/mL (≈ 0.644 µM); in the assay on Aspergillus niger it was 12.5 µg/mL (≈ 10.3 µM); in assay [Candida] zeylanoides it was 1.56 µg/mL (≈ 1.29 µM). For the same compound, the MIC in the assay with Nakaseomyces glabratus is 1.56 µg/mL (≈ 1.29 µM); with Candida albicans [4], 0.78 µg/mL (≈ 0.644 µM); with Candida albicans [5], 0.39 µg/mL (≈ 0.322 µM); in the assay with Naganishia albida, 12.5 µg/mL (≈ 10.3 µM); in the assay with Candida albicans [6], 0.78 µg/mL (≈ 0.644 µM).

Regarding `CCCCCCCCN1CCN(c2ccc(-c3ccc(C(=O)N[C@H]4CCCNC(=O)[C@@H]5C[C@H](C(=O)CN)CN5C(=O)[C@H]([C@@H](C)O)NC(=O)[C@H](CCc5ccc(O)c(C(=O)CN)c5)NC(=O)[C@@H]5CCCN5C(=O)[C@H]([C@@H](C)O)NC4=O)cc3)cc2)CC1` (X5-[Orn]TP[hTyr(3-COCH2NH2)]T[X6]; lactam 1-C), the MIC is 0.39 µg/mL (≈ 0.331 µM) in the assay on Candida albicans [1]; 1.56 µg/mL (≈ 1.32 µM) in the assay with Kluyveromyces marxianus; 0.1 µg/mL (≈ 0.0849 µM) with Candida albicans [2]; 0.39 µg/mL (≈ 0.331 µM) in the assay with Candida albicans [3]; 25 µg/mL (≈ 21.2 µM) in the assay on Aspergillus niger; 0.2 µg/mL (≈ 0.17 µM) in assay [Candida] zeylanoides. In addition, the minimum inhibitory concentration (MIC) in the assay with Nakaseomyces glabratus was determined as 1.56 µg/mL (≈ 1.32 µM); with Candida albicans [4], 0.39 µg/mL (≈ 0.331 µM); in the assay with Candida albicans [5], 0.78 µg/mL (≈ 0.662 µM); in the assay with Naganishia albida, 25 µg/mL (≈ 21.2 µM); in the assay on Candida albicans [6], 0.39 µg/mL (≈ 0.331 µM).

Turning to `CCCCCCCCN1CCN(c2ccc(-c3ccc(C(=O)N[C@H]4CCCNC(=O)[C@@H]5C[C@H](N=C(N)N)CN5C(=O)[C@H]([C@@H](C)O)NC(=O)[C@H](CCc5ccc(O)c(C(=O)CN)c5)NC(=O)[C@@H]5C[C@@H](O)CN5C(=O)[C@H]([C@@H](C)O)NC4=O)cc3)cc2)CC1` (X5-[Orn]T[Hyp][hTyr(3-COCH2NH2)]T[Pro(cis-4-guanidino)]; lactam 1-C), the MIC was determined as 0.2 µg/mL (≈ 0.167 µM) in the assay on Candida albicans [1]; 1.56 µg/mL (≈ 1.31 µM) in the assay on Kluyveromyces marxianus; 0.1 µg/mL (≈ 0.0837 µM) in the assay with Candida albicans [2]; 0.2 µg/mL (≈ 0.167 µM) with Candida albicans [3]; 3.12 µg/mL (≈ 2.61 µM) with Aspergillus niger; 0.2 µg/mL (≈ 0.167 µM) in assay [Candida] zeylanoides. The minimal inhibitory concentration (MIC) with Nakaseomyces glabratus came to 1.56 µg/mL (≈ 1.31 µM); in the assay with Candida albicans [4] it was 0.2 µg/mL (≈ 0.167 µM); in the assay on Candida albicans [5] it was 0.2 µg/mL (≈ 0.167 µM); with Naganishia albida, 12.5 µg/mL (≈ 10.5 µM); with Candida albicans [6] it was 0.1 µg/mL (≈ 0.0837 µM).
